Data taken from patent US8673913B2, “SHP-2 phosphatase inhibitor” (Case Western Reserve University, priority 2009, dated 2014).

Key:
[1] = system: SHP-2 (WT and D61G) in mouse embryonic fibroblasts; experiment: in vivo (immunocomplex) phosphatase assay: EGF-induced activation of SHP-2 in embryonic fibroblasts; type: cell-based; details: 100 μM, last 1 hour; WT and SHP-2D61G/D61G cells
Procedure: (§1) FIG. 5 illustrates in vivo effects of active compounds on SHP-2 activity and SHP-2-mediated signaling. (A) WT and mutant embryonic fibroblasts derived from activating mutation SHP-2 D61G knock-in mice were starved in serum-free medium overnight and were treated with the indicated compounds in the last 1 hour. Cells were then stimulated with EGF (20 ng/mL) for 10 min. Whole cell lysates were prepared and immunoprecipitated with anti-SHP-2 antibody. Immunoprecipitates were washed and then subjected to the in vitro phosphatase assay as described in the text. (B) Ba/F3 cells were deprived of IL-3 for 8 hours. The cells were treated with the indicated compounds 1 hour prior to the stimulation with IL-3 (2 ng/mL). Cells were harvested after the indicated periods of time. Whole cell lysates were prepared and examined for Erk activation with anti-phospho-Erk immunoblotting. The blot was striped and reprobed with anti-pan Erk antibody to examine protein loading.
For the in vivo phosphatase assay, mouse embryonic fibroblasts were used to assess the activities of the test compounds in inhibiting epidermal growth factor (EGF)-induced activation of SHP-2 catalytic activity. WT and mutant fibroblasts derived from activating mutation of SHP-2 D61G knock-in mice (SHP-2D61G/D61G)10 were starved in serum-free medium overnight and the tested compounds (100 μM) were added in the last 1 hour. […]

[2] = system: Erk activation in Ba/F3 cells; experiment: IL-3-induced Erk activation, anti-phospho-Erk immunoblotting; type: cell-based, murine; details: Ba/F3 cells preincubated 1 hour
Procedure: as §1
We next tested whether the active compounds are effective in cells. […] Activation of SHP-2 in response to EGF stimulation was determined using the immunocomplex phosphatase assay. Compared to WT SHP-2, catalytic activity of SHP-2 D61G mutant in the mutant cells was increased both at the basal level and following EGF stimulation (FIG. 5A), consistent with previous studies. […]

[3] = biological target: T1, SHP-2 PTP domain GST fusion protein (Homo sapiens, UniProt Q06124); experiment: fluorescence titration (quenching of SHP-2 fluorescence); type: binding; parameters: Purified SHP-2 PTP domain GST-fusion protein was diluted into 20 mM Tris-HCl; made in house; details: SHP-2 protein 3 μM, excitation 295 nm
T1 sequence (Q06124 247-517 limits assumed): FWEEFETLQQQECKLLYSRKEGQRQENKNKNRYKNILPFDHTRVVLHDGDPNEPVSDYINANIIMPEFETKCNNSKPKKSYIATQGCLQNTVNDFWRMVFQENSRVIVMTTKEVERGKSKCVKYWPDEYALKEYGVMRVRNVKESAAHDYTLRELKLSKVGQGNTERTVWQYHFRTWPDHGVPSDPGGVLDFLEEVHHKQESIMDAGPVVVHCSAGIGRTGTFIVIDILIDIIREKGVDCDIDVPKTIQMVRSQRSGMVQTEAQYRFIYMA
Procedure: For all experiments, Purified SHP-2 PTP domain GST-fusion protein was diluted into 20 mM Tris-HCl, pH 7.5. Fluorescence spectra were recorded with a Luminescence Spectrometer LS50 (Perkin-Elmer, Boston, Mass.). Titrations were performed by increasing the test compound concentration while maintaining the SHP-2 protein concentration at 3 μM. Contributions from background fluorescence of the inhibitors were accounted for by subtracting the fluorescence of the inhibitors alone from the of the protein-inhibitor solution. The excitation wavelength was 295 nm and fluorescence was monitored from 360 to 500 nm. All reported fluorescence intensities are relative values and are not corrected for wavelength variations in detector response.
To validate that the active compounds identified were binding directly to the SHP-2 protein, we determined whether the active compounds directly interacted with the SHP-2 PTP domain using fluorescence quenching and taking advantage of the four tryptophans in the PTP domain, with Trp248 located 15 Å from the putative pY+5 pocket and Trp423 located 8 Å from the phosphatase active site. […] Therefore, their binding to SHP-2 protein could not be determined using this measurement. Thus, the fluorescence quenching experiments indicate that at least four active compounds identified do directly bind to SHP-2, thereby leading to their biological activities.

[4] = system: H661 (SHP-2 N58S) and H596 lung cancer cells; experiment: cell proliferation assay, lung cancer cells (MTS); type: cell-based; details: indicated concentrations 48 hours; 10 μM time course
Procedure: To test the effects of the active compounds on SHP-2-mediated cellular proliferation, Ba/F3, an IL-3 dependent hematopoietic cell line, mouse embryonic fibroblasts (MEFs), and H661 lung cancer cell line with SHP-2 activating mutation N58S were used for the assays. Cells were seeded into 96-well plates (2×10^4 cells/well) in the RPMI-1640 (for Ba/F3 cells) or DMEM (for MEFs and H661 cells) medium supplemented with 10% fetal bovine serum (FBS) and test compounds at various concentrations. For the Ba/F3 cell assay, recombinant mouse IL-3 (1 ng/mL) was included in the culture medium. Two days later, cell number was determined using the MTS cell proliferation kit (Promega Life Science, Madison, Wis.).
FIG. 14 illustrates A). […] H661 and H596 cells were cultured in DMEM medium supplemented with active compounds at the indicated concentrations. DMSO was included at negative controls. Cell numbers were determined 48 hours later using the MTS assay. Shown are the results of a representative compound #324. B). […] H661 and H596 cells were cultured in DMEM medium supplemented with active compounds (10 μM) for the indicated periods of time. DMSO was included at negative controls. Cell numbers were determined using the MTS assay. Shown are the results of a representative compound #324.

Row | SMILES | EGF-induced activation of SHP-2 [1] | Erk activation by IL-3 [2] | quenching of SHP-2 fluorescence [3] | sensitivity of H661 (N58S) cells versus H596 cells [4]
1 | Cc1cc(C)c2c(c1)[nH]c1nnc(SCC(=O)NCc3cccs3)nc12 [#220] | blocked | suppressed | strong quenching | 
2 | NS(=O)(=O)c1ccc(CCNC(=O)c2ccc(Cn3c(=S)[nH]c4ccc(Br)cc4c3=O)cc2)cc1 [#216] | blocked | suppressed | strong quenching | 
3 | Cc1cc(C)c2[nH]c3nc(SCC(=O)Nc4cccc5ccccc45)nnc3c2c1 [#324] |  |  |  | more sensitive
